How the values were obtained:
[1] = tested on: RAW 264.7 mouse macrophage cells and MDA-MB-231 human adenocarcinoma cells; assay: Co-localization and migration of macrophages and tumor cells co-cultured in multilayer alginate fibers (CellTracker confocal imaging, Pearson correlation factor, Coloc2); assay type: cell-based; conditions: for calculated correlation factor (Pearson): Day 4, drug at approximate IC50: 50 μM for ZA and Rac1, 50 nM for GEF; for migration and co-localization of macrophages with tumor cells: co-cultured fibers, four days of incubation, FIG. 6a
Text: Using CellTracker™-labeling and confocal fluorescence microscopy to quantify the co-localization of the tumor cells and macrophages in co-culture over time (FIG. 8). To calculate correlation factor, ImageJ Fiji with the Coloc2 plugin may be utilized. The images are split into separate channels for macrophages (a) and breast cancer (b) cells and despeckled to remove noise.

[2] = tested on: RAW 264.7 mouse macrophage cells and MDA-MB-231 human adenocarcinoma cells; assay: Macrophage to tumor cell volume ratio per fiber (3D stack counting); conditions: Day 4, compared to the other samples
Text: CellTracker Green CM FDA dye and CellTracker CM-Dil dye (Life Technologies) were used to label RAW and 231 cells respectively according to manufacturer's instructions. Labeled 231 cells were dispersed in the alginate solution at a concentration of 5×10^6 cells/mL. Labeled RAW cells were dispersed in CaCl2 solution at a concentration of 4.5×10^7 cells/mL. After fiber generation, fibers were cut into approximately 20 mm sections and stored in 24-well cell culture plates containing media and pharmacological drugs. […] A vehicle control of 2% DMSO in cell culture media was also used. The cells were incubated at 37° C., 5% CO2 environment, with media changes every 2 days.

[3] = read-out: approximate IC50; cited from earlier work

SMILES: COc1cc2ncnc(Nc3ccc(F)c(Cl)c3)c2cc1OCCCN1CCOCC1 [GEF, Gefitinib]
- calculated correlation factor (Pearson) [1]: decreases
- migration and co-localization of macrophages with tumor cells [1]: distinct impairment of migration and co-localization

SMILES: Cc1ccc(NC(=O)c2cccc(OCc3c(C)noc3C)c2)cc1S(N)(=O)=O [RAC, Rac1 Inhibitor II]
- TC/Mϕ ratio [2]: significantly higher
- IC50 [3]: ~50 µM
- calculated correlation factor (Pearson) [1]: decreases
- calculated correlation factor (Pearson) ([1]; listed as inhibitor of Rac1): return to anti-correlation comparable to initial seeding (Day 0)
- inhibition of migration and co-localization (TC-Mϕ correlation compared to TC/Mϕ ratio) ([1]; FIG. 7b, straight and patterned fibers): highest inhibition of migration and co-localization
- migration and co-localization of macrophages with tumor cells [1]: distinct impairment of migration and co-localization

Reference: US20180147767A1, “METHODS OF EXTRUDING MULTILAYER FIBERS” (THE BOARD OF TRUSTEES OF UNIVERSITY OF ILLINOIS, priority 2015, published 2018)
